# Several values for one entry are separate records, joined by “and”; a condition that tells them apart may be missing. Equal entries are not always repeated. Entries after “also recorded” stand apart in the source; their conditions may differ. Non-standard residues stand in square brackets, D forms with d. Residues, ends and D or L forms follow the SMILES beside them. pGlu = O=C1CC[C@@H](C(=O)O)N1
# How the values were obtained:
# Format in all cases: in vivo
# release of LH = test: Release of LH in rats after sc injection; conditions: for release of LH compared with LHRH: sc injection, dose and time as stated in the source
# Source text: (§1) The data on the release of LH and FSH in rats by modifications of LHRH with one structural change are in Table II.
# (§2) Exclusive of the salmon-LHRH, only one of the six decapeptides with two structural changes had significant activity.
# release of FSH [1] = test: Release of FSH in rats after sc injection; conditions: for FSH % change: LHRH = 100
# Source text: as §1, §2
# release of FSH [2] = test: Release of FSH in rats after sc injection; conditions: dose and time as stated in the source
# [3] = 60 min. after sc injection, 300 ng, LHRH = 100
# [4] = 60 min. after sc injection, 3000 ng, LHRH = 100
# [5] = release 60 min. after sc injection, dosage of peptide 300 ng
# [6] = release 60 min. after sc injection, dosage of peptide 3000 ng
# [7] = 60 min. after sc injection, 300 ng
# [8] = 60 min. after sc injection, 3000 ng
# [9] = 15 min. after sc injection, 100 ng, LHRH = 100
# [10] = 15 min. after sc injection, 1000 ng, LHRH = 100
# [11] = release 15 min. after sc injection, dosage of peptide 100 ng
# [12] = release 15 min. after sc injection, dosage of peptide 1000 ng
# [13] = 30 min. after sc injection, 50 ng, LHRH = 100
# [14] = 30 min. after sc injection, 1000 ng, LHRH = 100
# [15] = release 30 min. after sc injection, dosage of peptide 50 ng
# [16] = release 30 min. after sc injection, dosage of peptide 1000 ng
# [17] = 15 min. after sc injection, 100 ng, experiment marked *
# [18] = 15 min. after sc injection, 1000 ng, experiment marked *
# [19] = release 15 min. after sc injection, dosage of peptide 50 ng
Compound,LH % change (release of LH; [3]) [%],LH % change (release of LH; [4]) [%],LH (release of LH; [5]) [ng/mL],LH (release of LH; [6]),FSH % change (release of FSH [1]; [7]) [%],FSH % change (release of FSH [1]; [8]) [%],FSH (release of FSH [1]; [5]) [ng/mL],FSH (release of FSH [1]; [6]) [ng/mL],release of LH compared with LHRH (release of LH),LH % change (release of LH; [9]) [%],LH % change (release of LH; [10]) [%],LH (release of LH; [11]) [ng/mL],LH (release of LH; [12]),FSH (release of FSH [1]; [11]) [ng/mL],FSH (release of FSH [1]; [12]),release of FSH compared with LHRH (release of FSH [2]),also measured
"NC(=O)CNC(=O)[C@@H]1CCCN1C(=O)[C@H](Cc1ccc(O)cc1)NC(=O)[C@H](Cc1c[nH]c2ccccc12)NC(=O)CNC(=O)[C@H](Cc1ccc(O)cc1)NC(=O)[C@H](CO)NC(=O)[C@H](Cc1c[nH]c2ccccc12)NC(=O)[C@H](Cc1c[nH]cn1)NC(=O)[C@@H]1CCC(=O)N1 [[Trp^7 Tyr^8]--LHRH, p-Glu His Trp Ser Tyr Gly Trp Tyr Pro Gly-NH2] ([pGlu]HWSYGWYPG-NH2)",25,4.6,2.8,3.8 ng/mL,35,30,209,352,,,,,,,,,
"CC(C)C[C@H](NC(=O)CNC(=O)[C@H](Cc1ccc(O)cc1)NC(=O)[C@H](CO)NC(=O)[C@H](Cc1c[nH]c2ccccc12)NC(=O)[C@H](Cc1c[nH]cn1)NC(=O)[C@@H]1CCC(=O)N1)C(=O)N[C@@H](Cc1ccc(O)cc1)C(=O)N1CCC[C@H]1C(=O)NCC(N)=O [[Tyr^8]--LHRH, p-Glu His Trp Ser Tyr Gly Leu Tyr Pro Gly-NH2]",23,3,2.5,2.7 ng/mL,48,38,285,449,relatively low activities,,,,,,,,"release of FSH compared with LHRH (release of FSH [1]; sc injection, dose and time as stated in the source): relatively low activities"
"CC(C)C[C@H](NC(=O)CNC(=O)[C@H](Cc1c[nH]cn1)NC(=O)[C@H](CO)NC(=O)[C@H](Cc1c[nH]c2ccccc12)NC(=O)[C@H](Cc1c[nH]cn1)NC(=O)[C@@H]1CCC(=O)N1)C(=O)N[C@@H](CC(C)C)C(=O)N1CCC[C@H]1C(=O)NCC(N)=O [[His^5 Leu^8]--LHRH, p-Glu His Trp Ser His Gly Leu Leu Pro Gly-NH2] ([pGlu]HWSHGLLPG-NH2)",20,2.2,2.2,1.8 ng/mL,44,18,261,205,,0.8,5,0.2,3.3 ng/mL,202,276 ng/mL,,"FSH % change (release of FSH [1]; 15 min. after sc injection, 100 ng): 43%; FSH % change (release of FSH [1]; 15 min. after sc injection, 1000 ng): 57%"
"CC(C)C[C@H](NC(=O)CNC(=O)[C@H](Cc1c[nH]cn1)NC(=O)[C@H](CO)NC(=O)[C@H](Cc1c[nH]c2ccccc12)NC(=O)[C@H](Cc1c[nH]cn1)NC(=O)[C@@H]1CCC(=O)N1)C(=O)N[C@@H](Cc1ccc(O)cc1)C(=O)N1CCC[C@H]1C(=O)NCC(N)=O [[His^5 Tyr^8]--LHRH, p-Glu His Trp Ser His Gly Leu Tyr Pro Gly-NH2] ([pGlu]HWSHGLYPG-NH2)",,3.4,,2.8 ng/mL,,42,,495,,,,,,,,,"LH % change (release of LH; [13]): 3%; LH % change (release of LH; [14]): 4%; LH (release of LH; [15]): 0.5 ng/mL; LH (release of LH; [16]): 5.0 ng/mL; FSH % change (release of FSH [1]; 30 min. after sc injection, 1000 ng): 3%; FSH (release of FSH [1]; [15]): 235 ng/mL; FSH (release of FSH [1]; [16]): 534 ng/mL"
"CC(C)C[C@H](NC(=O)CNC(=O)[C@H](Cc1c[nH]cn1)NC(=O)[C@H](CO)NC(=O)[C@H](Cc1c[nH]c2ccccc12)NC(=O)[C@H](Cc1c[nH]cn1)NC(=O)[C@@H]1CCC(=O)N1)C(=O)N[C@@H](CCCNC(=N)N)C(=O)N1CCC[C@H]1C(=O)NCC(N)=O [[His^5]--LHRH, p-Glu His Trp Ser His Gly Leu Arg Pro Gly-NH2]",,,14,142 ± 29 ng/mL and 142 ng/mL,,229,652,2684,as active as LHRH at two dose levels; also recorded: equivalent to LHRH in the release of LH,,,,,,,twice as active as LHRH at the high dosage; also recorded: two times as effective in the release of FSH at the higher dose level,
"CC(C)C[C@H](NC(=O)CNC(=O)[C@H](Cc1c[nH]cn1)NC(=O)[C@H](CO)NC(=O)[C@H](Cc1c[nH]c2ccccc12)NC(=O)[C@H](Cc1c[nH]cn1)NC(=O)[C@@H]1CCC(=O)N1)C(=O)N[C@@H](CCC(N)=O)C(=O)N1CCC[C@H]1C(=O)NCC(N)=O [[His^5 Gln^8]--LHRH, p-Glu His Trp Ser His Gly Leu Gln Pro Gly-NH2] ([pGlu]HWSHGLQPG-NH2)",30,8.3,3.3,6.8 ng/mL,48,39,283,456,,29,47,7,27 ng/mL,343,416 ng/mL,,
"NC(=O)CC[C@H](NC(=O)[C@H](Cc1c[nH]c2ccccc12)NC(=O)CNC(=O)[C@H](Cc1ccc(O)cc1)NC(=O)[C@H](CO)NC(=O)[C@H](Cc1c[nH]c2ccccc12)NC(=O)[C@H](Cc1c[nH]cn1)NC(=O)[C@@H]1CCC(=O)N1)C(=O)N1CCC[C@H]1C(=O)NCC(N)=O [[Trp^7 Gln^8]--LHRH, p-Glu His Trp Ser Tyr Gly Trp Gln Pro Gly-NH2] ([pGlu]HWSYGWQPG-NH2)",29,9.1,3.2,7.5 ng/mL,58,40,345,474,,29,60,7,34 ng/mL,421,502 ng/mL,,
"N=C(N)NCCC[C@H](NC(=O)[C@H](Cc1c[nH]c2ccccc12)NC(=O)CNC(=O)[C@H](Cc1c[nH]cn1)NC(=O)[C@H](CO)NC(=O)[C@H](Cc1c[nH]c2ccccc12)NC(=O)[C@H](Cc1c[nH]cn1)NC(=O)[C@@H]1CCC(=O)N1)C(=O)N1CCC[C@H]1C(=O)NCC(N)=O [[His^5 Trp^7]--LHRH, p-Glu His Trp Ser His Gly Trp Arg Pro Gly-NH2] ([pGlu]HWSHGWRPG-NH2)",,,26.0,138 ng/mL,,,624,1448,"as active as LHRH; also recorded: significantly positive, but less than that at the higher dosage; also recorded: released significantly more LH and FSH than did LHRH at a dosage of 50 ng; also recorded: equivalent to that released by the same dosage of LHRH; also recorded: significantly positive, but lower than that released at the higher dose level; also recorded: both peptides had comparable activities",,,30,39 ng/mL and 78 ng/mL,502,562 ng/mL and 429 ng/mL,as active as LHRH; also recorded: equivalent to that from LH; also recorded: released significantly more LH and FSH than did LHRH at a dosage of 50 ng; also recorded: equivalent to that released by the same dosage of LHRH; also recorded: higher than that for LH; also recorded: both peptides had comparable activities,"LH % change (release of LH; 15 min. after sc injection, 50 ng, LHRH = 100): 188%; LH (release of LH; [17]): 13 ng/mL; LH (release of LH; [18]): 23 ng/mL; LH % change (release of LH; 15 min. after sc injection, 1000 ng, experiment marked *, LHRH* = 100): 59%; LH % change (release of LH; [13]): 67%; LH % change (release of LH; [14]): 40%; LH (release of LH; [19]): 30 ± 3 ng/mL; LH (release of LH; [15]): 12 ng/mL; LH (release of LH; [16]): 51 ng/mL; FSH % change (release of FSH [1]; 15 min. after sc injection, 50 ng): 121%; FSH (release of FSH [1]; [17]): 346 ng/mL; FSH (release of FSH [1]; [18]): 456 ng/mL; FSH (release of FSH [1]; [19]): 663 ng/mL; FSH (release of FSH [1]; [15]): 387 ng/mL; FSH (release of FSH [1]; [16]): 857 ng/mL"
"CC(C)C[C@H](NC(=O)[C@H](Cc1c[nH]c2ccccc12)NC(=O)CNC(=O)[C@H](Cc1c[nH]cn1)NC(=O)[C@H](CO)NC(=O)[C@H](Cc1c[nH]c2ccccc12)NC(=O)[C@H](Cc1c[nH]cn1)NC(=O)[C@@H]1CCC(=O)N1)C(=O)N1CCC[C@H]1C(=O)NCC(N)=O [[His^5 Trp^7 Leu^8]--LHRH, p-Glu His Trp Ser His Gly Trp Leu Pro Gly-NH2] ([pGlu]HWSHGWLPG-NH2)",23,6,2.5,5 ng/mL,62,32,369,376,,38,40,9,23 ng/mL,383,445 ng/mL,equivalent in activity to LHRH,"LH released, % of the LH released by LHRH (release of LH; levels of 100 and 1000 ng): up to 50%; release of FSH compared with LHRH (release of FSH [2]; Trp^7 Leu^8 ]-LHRH): released as much FSH as LHRH"
